This note sets out measurements from article PMC2879362, “Design of Group IIA Secreted/Synovial Phospholipase A2 Inhibitors: An Oxadiazolone Derivative Suppresses Chondrocyte Prostaglandin E2 Secretion” (PLoS ONE, 2010).

For one data set, the system named is COX-1. As to the kind of experiment: Western blot of COX-1 protein level in IL-1β-treated chondrocytes. The class given is cell-based, rabbit. Particulars: C8 0.31-1.24 µM in DMEM, IL-1β 20 h. The procedure:
(§1) As expected, COX-1 protein was detectable but COX-2 and iNOS proteins were undetectable in untreated control conditions (Fig. 6A). […] Consequently, the protein ratio of COX-1 to COX-2 was not modified by C8 (Fig. 6B). […] Cell lysates were centrifuged for 15 min at 14000 rpm at 4°C and supernatants were collected. Protein concentrations were determined by the Bradford method by use of the Protein Assay dye reagent (Bio-Rad). Protein extracts (20 µg) were size-separated by SDS-PAGE in a 10% (w/v) polyacrylamide gel and electroblotted to a nitrocellulose membrane. Equal protein loading and transfer was confirmed by staining the membrane with Ponceau Red [0.2% (w/v) in H2O:acetic acid 99∶1]. The membrane was sequentially incubated with antibodies against COX-1 (1∶200, Santa Cruz Biotechnology), COX-2 (1∶500, Santa Cruz Biotechnology), iNOS (1∶400, BD Biosciences) or α-tubulin (1∶100, Santa Cruz Biotechnology) and then with peroxidase-conjugated donkey anti-goat IgG (1∶20000) or donkey anti-rabbit IgG (1∶200, both Santa Cruz Biotechnology). Immunocomplexes were detected by an enhanced chemiluminescence kit (Amersham Bioscience). The membrane was stripped by incubation in 0.2 M NaOH between successive immunodetections. Semi-quantitative scanning densitometry involved use of the ImageJ program (NIH, USA).
Background: Immunoblotting shows a protein as a band on a membrane.

Data set [1] concerns rabbit articular chondrocytes. As to the kind of experiment: MTT cell viability of IL-1β-treated articular chondrocytes. The data set is classed as cell-based. Particulars: IL-1β 1 ng/mL 20 h. The procedure: We assessed the viability of the chondrocytes by MTT assay to evaluate the cytotoxic effects of C8 on these cells. Chondrocytes were treated for 20 h with 1 ng/mL IL-1β alone or 1 h after the addition of C8 at 0.31 to 9.92 µM, which corresponded to 0.5- to 5-fold the IC50 of C8 on human GIIAPLA2 activity (Table 2). Three different culture medium compositions were used: DMEM alone, or supplemented with 0.1% BSA or 2% FCS. […] Thus, we evaluated the anti-inflammatory activity of C8 in culture conditions from 0.31 to 1.24 µM in DMEM alone and from 0.31 to 4.96 µM in DMEM supplemented with 0.1% BSA or 2% FCS.
Articular chondrocytes were isolated from 5-week-old Fauve de Bourgogne female rabbits (CPA, Orleans, France) and cultured at the first passage in conditions avoiding cell dedifferentiation as previously described. Cells were cultured at 37°C in 12-well plates in Ham's F-12 medium containing 10% FCS, 20 IU/mL penicillin, and 20 µg/mL streptomycin (all from Invitrogen) until nearly confluent. Then medium was replaced with DMEM (Invitrogen) containing 20 IU/mL penicillin, and 20 µg/mL streptomycin and, if necessary, 0.1% fatty acid free BSA (Sigma) or 2% FCS. At this time the C8 compound dissolved in DMSO (Sigma) was added to the medium (the amount of DMSO was kept at 1‰ (v/v) in all the wells). 1 h after the addition of C8, IL-1β (PeproTech) was added to the medium. Consequently, chondrocytes were incubated for 20 h with IL-1β and for 21 h with C8.
At 18 h after the addition of IL-1β, 3-[4,5-dimethylthiazol-2-yl]-2,5-diphenyl tetrazolium bromide (MTT; Sigma) was added to the cell culture medium at 0.5 mg/mL. Cells were incubated 2 more hours at 37°C. The medium was then removed, and DMSO was added to dissolve the formazan crystals. The absorbance of the resulting solution was spectrophotometrically measured at 570 and 690 nm (background). The value corresponding to absorbance570nm - absorbance690nm was directly proportional to the number and activity of the viable cells.

In data set [2] the target is T1, porcine group IB PLA2 (pGIBPLA2) (Sus scrofa, UniProt P00592).
T1 construct: purchased Sigma
T1 sequence (P00592 23-146): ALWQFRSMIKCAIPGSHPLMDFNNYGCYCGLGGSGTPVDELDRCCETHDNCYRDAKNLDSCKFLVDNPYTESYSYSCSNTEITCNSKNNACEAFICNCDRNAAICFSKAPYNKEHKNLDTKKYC
As to the kind of experiment: In vitro fluorimetric PLA2 assay (β-py-C10-PG substrate). Particulars: 2 µM β-py-C10-PG, 6 ng/mL pancreatic PLA2. The data set is classed as biochemical. The procedure:
(§2) The compounds C1-C8 were submitted to fluorimetric assay to determine their inhibitory potencies and selectivity towards human GIIAPLA2 (hGIIAPLA2) versus porcine group IB PLA2 (pGIBPLA2) (Table 2). GIBPLA2 is an enzyme of the same family as GIIAPLA2 (sPLA2) but is mainly involved in digestion of dietary phospholipids and is secreted by the pancreas. Lipophilicity parameters, log P, of these products are calculated by use of Rekker's fragmental data (Table 2). The molecules C1-C8 are specific inhibitors of hGIIAPLA2 because none inhibited pGIBPLA2 at the highest concentration tested (100 µM). Such selectivity implies that C1-C8 should not interfere with the digestion process.
(§3) Fatty-acid free BSA and pancreatic PLA2 were from Sigma. hGIIAPLA2 was prepared as previously described. The fluorescent substrate for PLA2 assay, 1-hexadecanoyl-2-(10-pyrenedecanoyl)-sn-glycero-3-phosphoglycerol, ammonium salt (β-py-C10-PG) was from Molecular Probes (Eugene). PLA2 activity was evaluated as previously described with β-py-C10-PG used as a substrate (2 µM final concentration). In a total volume of 1 mL, the standard reaction medium contained 50 mM Tris-HCl (pH 7.5), 500 mM NaCl, 1 mM EGTA, 2 µM β-py-C10-PG, 0.1% fatty-acid free BSA and 6 ng/mL pancreatic PLA2 or 1 ng/mL hGIIAPLA2. The fluorescence (λex = 342 nm and λem = 398 nm) of the enzymatic reaction medium was recorded for 3 min with use of a spectrofluorimeter LS 50 (Perkin-Elmer) equipped with a Xenon lamp. The reaction was initiated by the addition of CaCl2 (10 mM, final concentration). The increase in fluorescence was continuously recorded for 1 min, and PLA2 activity was calculated as previously described. When used, the inhibitor was added to the reaction medium after introduction of BSA. The activity is expressed in micromoles of fluorescent β-py-C10-PG hydrolyzed per min. The standard error of the mean of three independent experiments was less than 10%, which allows for the determination of the IC50 values (concentration of inhibitors producing 50% inhibition) of each compound.

The target in data set [3] is T2, human GIIAPLA2 (hGIIAPLA2) (Homo sapiens, UniProt P14555).
T2 construct: hGIIAPLA2 was prepared as previously described [33]; made in house
T2 sequence (P14555 21-144): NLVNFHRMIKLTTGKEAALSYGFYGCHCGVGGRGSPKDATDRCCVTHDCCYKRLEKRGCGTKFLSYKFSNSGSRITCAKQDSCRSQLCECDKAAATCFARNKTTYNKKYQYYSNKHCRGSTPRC
Described as above. The class given is biochemical. The note with it: 2 µM β-py-C10-PG, 1 ng/mL hGIIAPLA2. As for the experimental part: as §2, §3

For a further data set, the system named is COX-2. As to the kind of experiment: Western blot of COX-2 protein level in IL-1β-treated chondrocytes. The class given is cell-based, rabbit. The note with it: C8 0.31-1.24 µM in DMEM, IL-1β 20 h. As for the experimental part:
as §1

Each structure is given as a SMILES string. “Also recorded” adds a separate entry of the source.

As to `O=c1[nH]c(Cc2ccc(OCCCCCOc3cc4ccccc4c4ccccc34)cc2)no1` [C8], in the data set with COX-1, the “effect on COX-1 protein level” value is “did not alter”. For the same compound, the “cytotoxic effects (MTT)” value in data set [1] (DMEM alone, C8 at 0.31 to 2.48 µM) is recorded as “no cytotoxic effects”; in data set [1] (DMEM with 0.1% BSA, C8 at 0.31 to 9.92 µM) it was “no cytotoxic effects; also recorded: did not decrease cell viability”; in data set [1] (DMEM with 2% FCS, C8 at 0.31 to 9.92 µM) it was “no cytotoxic effects; also recorded: did not decrease cell viability”. The IC50 is greater than 100000 nM in data set [2] and 620 ± 150 nM in data set [3]. For the same compound, the “effect on COX-2 protein level” value with COX-2 is listed as “did not alter”.

Usually IC50 stands for the concentration needed to halve the response being measured.
